Measured values published in patent publication EP0324390A2, “Nigericin derivatives, method for their preparation, compositions containing them and use of these compositions” (priority 1988, dated 1989).
In brackets after ≈: the same amount, converted by molar mass.

Columns and labels:
Format in all cases: cell-based
Testviren = test: Antiviral activity in cell culture (CPE, HeLa or Vero cells); conditions: cell cultures infected with test viruses; qualitative statement
Staph. aureus (285) = test: Agar dilution test according to Lorian (antibacterial activity); conditions: Staphylococcus aureus
Experimental: (§1) Die antibakterielle Wirksamkeit der erfindungsgemäßen Verbindungen wurde im Agar-Verdünnungstest nach Lorian (Antibiotics in Laboratory Medicine, Williams & Wilkins, Baltimore/London, 1980) bestimmt. Dabei wurden die Präparate in einer geometrischen Verdünnungsreihe mit dem Faktor 2 in Müller Hinton Agar verdünnt. Eine Petrischale enthielt nur Müller Hinton Agar und diente zur Kontrolle des Bakterienwachstums. Die Petrischalen wurden dann mit einem Denley-Multipoint-Inokulator, welcher 0,6 ul einer 1 : 100 verdünnten 18-Stunden-Kultur der Testbakterien übertrug, mit den entsprechenden Testbakterien beimpft. Nach 16 bis 18 Stunden Inkubation bei 37^. C wurden die Petrischalen makroskopisch auf Bakterienwachstum untersucht.
(§2) Die niedrigste Konzentration der erfindungsgemäßen Verbindungen, welche das Bakterienwachstum noch vollständig verhinderte, wurde als MIC (Minimum Inhibitory Concentration) angenommen.
(§3) In Tabelle 4 ist die Wirkung (Angabe des MIC in µg/ml) von verschiedenen erfindungsgemäßen Verbindungen gegen folgende Bakterien aufgeführt: • Staph. aureus (SG 511), Staph. aureus (285), Staph. aureus (503), Strept. pyogenes (308 A), Strept pyogenes (77 A), Strept. faecium (D).

Strept. faecium (D) = test: as above; conditions: Enterococcus faecium
Experimental: as §1, §2, §3

Staph. aureus (503) = test: as above; conditions: Staphylococcus aureus
Experimental: as §1, §2, §3

Staph. aureus (SG 511) = test: as above; conditions: Staphylococcus aureus
Experimental: as §1, §2, §3

E. coli = test: Antibacterial activity against gram-negative bacteria; conditions: Escherichia coli, read-out: MHK
Experimental: as §1, §2
(§4) Überraschend zeigen die Dicarbonsäure-Addukte des Nigericins auch eine Wirkung gegen gramnegative Bakterien. So besitzt beispielsweise die Substanz aus Beispiel 32 gegen E. coli eine MHK von 0,55 µg/ml, gegen E. coli (DC 2) eine MHK von 25,0 µg/ml und gegen Entrob. Cloacae (1321 E) eine MHK von 250 µg/ml.

Entrob. Cloacae (1321 E) = test: as above; conditions: Enterobacter cloacae, read-out: MHK
Experimental: as §1, §2, §4

E. coli (DC 2) = test: as above; conditions: Escherichia coli, read-out: MHK
Experimental: as §1, §2, §4

**Q.** Which “antivirale Wirkung” value (Testviren) does the source give for `CO[C@@H]1C[C@@H](C[C@H]2CC[C@H](C)[C@H]([C@@H](C)C(=O)O)O2)O[C@]2(O[C@](C)([C@H]3CC[C@@](C)([C@@H]4O[C@@H]([C@H]5O[C@@](O)(CO)[C@H](C)C[C@@H]5C)C[C@@H]4C)O3)C[C@H]2C)[C@@H]1C` [Beispiel 1, Nigericin] here?
**A.** ausgezeichnete antivirale Wirkung

**Q.** `COC1CC(CC2CCC(C)C(C(C)C(=O)O)O2)OC2(OC(C)(C3CCC(C)(C4OC(C5OC(O)(COC(=O)CCCC(=O)O)C(C)CC5C)CC4C)O3)CC2C)C1C` (centres unmarked) [Beispiel 32] was tested. Which MIC (Staph. aureus (285)) did it give?
**A.** 0.39 µg/mL (≈ 0.465 µM)

**Q.** What about the MIC (Strept. faecium (D)) of the same compound?
**A.** 0.39 µg/mL (≈ 0.465 µM)

**Q.** And the MIC (Staph. aureus (503))?
**A.** 0.39 µg/mL (≈ 0.465 µM)

**Q.** And the MIC (Staph. aureus (SG 511))?
**A.** 0.39 µg/mL (≈ 0.465 µM)

**Q.** What about the MIC (E. coli) of the same compound?
**A.** 0.55 µg/mL (≈ 0.655 µM)

**Q.** And the MIC (Entrob. Cloacae (1321 E))?
**A.** 250 µg/mL (≈ 298 µM)

**Q.** And the MIC (E. coli (DC 2))?
**A.** 25 µg/mL (≈ 29.8 µM)
